Data on 11 molecules can be found in US9487551B2, “Small molecule compounds that control mammal-pathogenic nematodes” (California Institute of Technology, priority 2011, dated 2016).

Assay [1] deals with Meloidogyne javanica, M. floridensis, M. incognita, M. hapla. The assay is described as follows: Ascaroside function (Table 12). It counts as in vivo, Meloidogyne spp. The following applies: for predicted function in Meloidogyne species: alone, in concert, and/or in concert with ascr#9 or other ascarosides; for Dispersal (of dauer larvae, infectious juveniles) / Repel Females/Herm.: entries with asterisk (predicted). As to the method: (§1) Ascarosides ascr#10, ascr#16, ascr#18, ascr#20, and ascr#22 were detected in certain species of Meloidogyne plant parasitic nematodes (FIG. 83) and identified using high-resolution mass spectrometry (FIGS. 84-88).
(§2) Various ascarosides and ascaroside blends were administered to various nematodes described below (Table 12). […] A very strong result of affecting nematode behavior is designated in the table as “strong.”

For assay [2], the system named is Heterorhabditis bacteriophora, H. zealandica, H. floridensis. The assay can be described thus: Ascaroside function (Table 12). The following applies: for predicted function in Heterorhabditis: alone, in concert, and/or in concert with ascr#9 or other ascarosides; for Dispersal (of dauer larvae, infectious juveniles) / Repel Females/Herm.: entries with asterisk (predicted). It is filed as in vivo, Heterorhabditis spp. As to the method:
as §1, §2

Assay [3] has as its system C. elegans. The assay can be described thus: Spot attraction assay. It counts as in vivo. As for the experimental part: The spot attraction assays were conducted according to a previously reported method (Pungaliya et al., PNAS 106:7708-13 (2009); Srinivasan et al., Nature 454:1115-18 (2008), which are hereby incorporated by reference in their entirety). For both C. elegans hermaphrodites and males, 50-60 worms were harvested daily at the fourth larval stage (L4) and stored segregatedly by sex at 20° C. overnight, to be used as young adults the following day. For the competition experiments, two conditions were used: 120 nM ascr#3 and 10 nM icas#3 (Condition 1), or 12 μM ascr#3 and 1 μM icas#3 (Condition 2) in water containing 10% ethanol. Aliquots were stored at −20° C. in 20 μL tubes. 10% ethanol in water was used as control.
Attraction assays with hbas#3 were conducted as previously reported (Srinivasan et al., Nature 454:1115-18 (2008); Pungaliya et al., Proc. Natl. Acad. Sci. U.S.A. 106:7708-13 (2009), which are hereby incorporated by reference in their entirety). For the attraction assays, 50-60 hermaphrodite worms were harvested daily at the early fourth larval stage (L4) and stored at 20° C. overnight to be used as young adults the following day. Hbas#3 was dissolved in water containing 10% ethanol. Aliquots were stored at −20° C. in 20 μL tubes. 10% ethanol in water was used as control.

Assay [4] concerns C. elegans. The assay can be described thus: Quadrant chemotaxis assay. It is filed as in vivo. To be noted: FIGS. 48A-B; wild-type hermaphrodites. As to the method: Chemotaxis to both non-indole and indole ascarosides was assessed on 10 cm four-quadrant petri plates (Wicks et al., Dev. Biol. 221:295-307 (2000), which is hereby incorporated by reference in its entirety). Each quadrant was separated from adjacent ones by plastic spacers (FIG. 1B). Pairs of opposite quadrants were filled with nematode growth medium (NGM) agar containing either indole ascarosides or non-indole ascarosides at different concentrations. Animals were washed gently in a S-basal buffer, placed in the center of a four-quadrant plate with ascarosides in alternating quadrants, and scored after 15 minutes and 30 minutes. A chemotaxis index was calculated as: (the number of animals on ascaroside quadrants minus the number of animals on buffer quadrants)/(total number of animals).
Chemotaxis to hbas#3 was assessed on 10 cm four-quadrant petri plates (Wicks et al., Dev. Biol. 221:295-307 (2000), which is hereby incorporated by reference in its entirety). Each quadrant was separated from adjacent ones by plastic spacers. Pairs of opposite quadrants were filled with nematode growth medium (NGM) agar containing different concentrations of hbas#3. Animals were washed gently in an S-basal buffer and placed in the center of a four-quadrant plate with ascarosides in alternating quadrants, and scored after 15 minutes and 30 minutes. A chemotaxis index was calculated as: (the number of animals on ascaroside quadrants minus the number of animals on buffer quadrants)/(total number of animals).

Assay [5] concerns C. elegans. The assay can be described thus: Ascaroside function (Table 12). It is filed as in vivo, Caenorhabditis elegans. More on the design: key to Attract Females/Herm. / Promote Dauer Formation / Attract Males: A very strong result of affecting nematode behavior is designated in the table as “strong.”. The following applies: listed = has this function. As to the method:
as §2

For assay [6], the system named is C. elegans. To be noted: in vivo; cited from earlier work.
The subject of assay [7] is C. elegans males. The assay is described as follows: Attraction assay (long-range, point source). It is filed as in vivo. To be noted: 10 cm plate. As to the method: 10 cm standard chemotaxis plates were prepared (Bargmann et al., Cell 74:515-27 (1993), which is hereby incorporated by reference in its entirety) and stored at 4° C. until the day before use. Standard 1 cm-diameter copper pipes were sectioned into 1 cm-tall segments to use for the holding chambers. The females/hermaphrodites were isolated overnight, washed 3 times in M9 buffer, and then allowed to wander on a plate pre-conditioned with 50 uL of 1000× treptomycin for 2 hours to kill any bacteria that might produce a false positive attractant. The nematodes were then washed 3 times, and the supernatant from the last wash was placed in a copper chamber, as the control, 1 cm from the border of the 10 cm plate. The nematodes were suspended in M9 within the copper chamber, 1 cm from the border opposite the control chamber. After 6 hours, they were subsequently removed and replaced with 3 μL of 1M sodium azide. 100 C. elegans adult males were isolated overnight, washed several times in ddH2O, and placed at the center of the agar plate. After several hours, males paralyzed within 2 cm of each region were scored. The Chemotaxis Index (Bargmann et al., Cell 74:515-27 (1993), which is hereby incorporated by reference in its entirety) was then used to score male chemotaxis to either point source.

The subject of assay [8] is C. elegans. To be noted: cited from earlier work.
Assay [9] relates to S. glaseri. The assay can be described thus: Ascaroside function (Table 12). The following applies: listed = has this function. It counts as in vivo. As for the experimental part: as §2
For assay [10], the system named is Panagrellus redivivus. The assay can be described thus: Ascaroside function (Table 12). It counts as in vivo. To be noted: listed = has this function. As to the method:
as §2

The test system of assay [11] is Several of the tested nematode species. The assay can be described thus: Retention assay. It is filed as in vivo. The following applies: 1 nM, 1 μM and 1 mM tested. As for the experimental part: OP50 E. coli was grown on a standard 5 cm agar plate (made with standard Nematode Growth Medium). The bacterial lawn was 16 mm in diameter and was grown overnight at 20° C. before being used in trials. Two 4 mm spots (0.6 μL) were placed on opposite sides of the bacterial lawn (using a transparent template to guide spot placement), and several minutes elapsed for the liquid to settle in before placing nematodes down on the assay. Recording began immediately upon worm placement. 0.6 μL of the control was placed on one side of the lawn, and 0.6 μL of the experimental cue was placed on the other side of the lawn, changing the location of the cue throughout trials between left/right and top/bottom to avoid bias.
Nematodes were isolated by gender at the L4 stage the day before being used in trials as developed adults. Worms were evenly divided and placed at two points equidistant from the foci of the scoring region. Trials were recorded for 20 minutes, and frames were collected for analysis at 1 frame per second. Results were averaged from at least three different trials. For every nematode species in this study, a different total number of worms (using water in both scoring regions) was tested to determine the minimum number of worms necessary for consistent unbiased results over a 20 minute trial. The total number of worms used in the multiple species assays depended on that species' optimal parameters. 10 worms were used for P. redivivus males and females, 20 worms were used for C. elegans males and O. dolichuridae males, and 14 worms were used for S. glaseri males. The Automated Software was used to compare worm occupancy in each scoring region over time, and the Chemotaxis Index (Bargmann et al., Cell 74:515-27 (1993), which is hereby incorporated by reference in its entirety) was adapted to score preference or avoidance to each ascaroside.
A video camera attached to the microscope produced a digital video stream, which was then analyzed. The ratio of the time the average worm spent in each region of interest was calculated for every trial. For ease of implementation, all worms in a single experiment were assumed to be roughly the same size. Thus worm pixels were counted instead of whole worms, allowing fractions of a worm in the region of interest to be taken into account. It also eliminated the need for a shape-based worm identification algorithm, and allowed each frame to be analyzed independently. A band-pass filter was applied to each frame to eliminate the effect of uneven lighting and also accentuate the worms against the background. The worm was then identified after thresholding the filtered image. Throughout each experiment, the locations and sizes of the regions of interest were known. Through the filtering described above, it is known which pixels are occupied by worms and which ones are not. Thus, the ratio of worm-pixels to all pixels inside the region of interest can be calculated to produce the worm-occupancy ratio. This calculation was done for every frame, giving a plot output of worm-occupancy ratio vs. time for each region.

The test system of assay [12] is S. feltiae. The assay can be described thus: Ascaroside function (Table 12). It is filed as in vivo, Steinernema feltiae. To be noted: listed = has this function. As for the experimental part:
as §2

“Also recorded” adds a separate entry of the source. Marks after values point to notes of the source that are not given here.

`CC1OC(O[C@H](C)CCCCCCCCC(=O)O)C(O)CC1O` (some centres unmarked) [ascr#18]: in assay [1], the “predicted function in Meloidogyne species” value is “act as dispersants and repellants”; the “Dispersal (of dauer larvae, infectious juveniles)” value (“Dispersal” for short) is reported as “ascr#18*”; the “Repel Females/Herm.” value is given as “ascr#18*”. Also, in assay [2], the “predicted function in Heterorhabditis” value was “act as dispersants and repellants”; the “Dispersal” value is “ascr#18*”; the “Repel Females/Herm.” value was “ascr#18*”.

On to `CC1OC(O[C@H](C)CCCCCCCC(=O)O)C(O)CC1O` (some centres unmarked) [ascr#16], for which, in assay [1], the “predicted function in Meloidogyne species” value was “act as dispersants and repellants”; the “Dispersal” value is “ascr#16*”; the “Repel Females/Herm.” value is given as “ascr#16*”.

For the molecule `C[C@H](CCCC/C=C/C(=O)O)O[C@@H]1O[C@@H](C)[C@H](OC(=O)c2ccc(O)cc2)C[C@H]1O` [hbas#3, (8R)-(3′R-Hydroxy-5′R-(4-hydroxybenzoyloxy)-6′S-methyl-(2H)-tetrahydropyran-2′-yloxy)non-(2E)-enoic acid], the “attraction of wild-type (N2) hermaphrodites” value in [3] (dose dependent) is “attracted”. In [4], the “concentration as low as which strongly attracted C. elegans” value worked out at 10 femtomolar. Also, the “Attract Males” value in [5] was “([strong])”.

For `CC(=O)CC[C@@H](C)O[C@@H]1O[C@@H](C)[C@H](O)C[C@H]1O[C@@H]1O[C@H](CO)[C@@H](O)[C@H](O)[C@H]1O` [ascr#4], in assay [5], the “Promote Dauer Formation” value is recorded as “ascr#4”.

Regarding `CC1O[C@@H](O[C@H](C)CCCC/C=C/C(=O)O)[C@@H](O)C[C@H]1O` (some centres unmarked) [ascr#3], in assay [6], the dauer-inducing activity entry was “individually promote dauer entry”. In assay [7], the “amount as low as which elicited C. elegans male attraction” value is 5 femtomol and the “male attraction from a distance” value is “chemotax towards”. Moreover, in assay [8] (from 1 μM concentration), the “most active amount for attraction” value is reported as approximately 1 pmol. The “response of social and solitary hermaphrodites” value in [8] (high dauer-inducing concentrations) is “strongly deter both social and solitary hermaphrodites”. Besides, the “response of males and hermaphrodites” value in assay [8] (in vivo) was “strongly attracts males but repels hermaphrodites”. In assay [9], the “Attract Males” value is “ascr#3”. For the same molecule, the “Attract Males” value in assay [10] is recorded as “ascr#3”. In [11], the “preference for ascaroside-conditioned areas” value was “preferred areas conditioned”. In assay [5], the “Attract Males” value was “ascr#3”, the “Promote Dauer Formation” value is “ascr#3 ([strong])” and the “Repel Females/Herm.” value is given as “ascr#3”. In assay [12], the “Dispersal” value is given as “ascr#3”.

With `CC1O[C@@H](OCCCCCCCCC(=O)O)C(O)C[C@H]1O` (stereo partly drawn) [oscr#10, 9-(3′R,5′R-Dihydroxy-6′S-methyl-(2H)-tetrahydropyran-2′-yloxy)nonanoic acid], the “Repel Males” value in assay [10] is reported as “oscr#10”.

`CC1OC(O[C@H](C)CCCCCCCCCC(=O)O)C(O)CC1O` (some centres unmarked) [ascr#20]: in [1], the “predicted function in Meloidogyne species” value is “act as dispersants and repellants”; the “Dispersal” value is on record as “ascr#20*”; the “Repel Females/Herm.” value is reported as “ascr#20*”.

As to `C[C@H](CCCCC(=O)O)O[C@@H]1O[C@@H](C)[C@H](OC(=O)c2c[nH]c3ccccc23)C[C@H]1O` [icas#1], the “attraction in spot attraction assay” value in assay [3] (1 pmol (high concentrations), N2 hermaphrodites and him-5 males) is “attractive to both C. elegans sexes; also recorded: attracted both males and hermaphrodites”. Besides, in assay [5], the “Attract Females/Herm.” value was “icas#1 ([strong])” and the “Attract Males” value is “icas#1 ([strong])”.

As to `C[C@H](CC/C=C/C(=O)O)O[C@@H]1O[C@@H](C)[C@H](O)C[C@H]1O` [ascr#7], the “Attract Males” value in [9], in assay [10] and in assay [5] was “ascr#7” each time. Also, in assay [11], the “preference for ascaroside-conditioned areas” value was “preferred areas conditioned”.

Regarding `C[C@@H]1O[C@@H](OCCCCC(=O)O)[C@H](O)C[C@H]1O` [oscr#9, 5-(3′R,5′R-Dihydroxy-6′S-methyl-(2H)-tetrahydropyran-2′-yloxy)pentanoic acid], the “Attract Males” value in assay [10] is reported as “oscr#9”.

As for `C[C@H](CCCCCCCCCCC(=O)O)O[C@@H]1O[C@@H](C)[C@H](O)C[C@H]1O` [ascr#22], in assay [1], the “predicted function in Meloidogyne species” value is “act as dispersants and repellants”; the “Dispersal” value was “ascr#22*”; the “Repel Females/Herm.” value was “ascr#22*”. Besides, in assay [2], the “predicted function in Heterorhabditis” value is “act as dispersants and repellants”; the “Dispersal” value was “ascr#22*”; the “Repel Females/Herm.” value is “ascr#22*”.
